Measured values taken from ChEMBL document CHEMBL1201862, “PubChem BioAssay data set” (2004).
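Step 1: Grow cells in 96-well plates. Step 2: Expose to compound for 48 hours at 5 concentrations. Step 3: Interpolate endpoints linearly; if unreached, use highest concentration. At the GI50, growth is halved.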 The source made the active and inactive calls. Rule as the data show it: active = GI50 up to about 1.1 µM and inactive = higher.

Experiments:
Test in all cases: NCI tumour cell line growth inhibition, 48 h
HT-29 = system: HT-29
MDA-MB-231 = system: MDA-MB-231
M14 = system: M14
ACHN = system: ACHN
A498 = system: A498
SF-268 = system: SF-268
TK-10 = system: TK-10
K562 = system: K562
RXF 393 = system: RXF 393
NCI-H23 = system: NCI-H23
786-0 = system: 786-0
UACC-62 = system: UACC-62
UO-31 = system: UO-31
SNB-19 = system: SNB-19
SN12C = system: SN12C
MCF7 = system: MCF7
NCI-H522 = system: NCI-H522
T47D = system: T47D
SNB-75 = system: SNB-75
SK-MEL-28 = system: SK-MEL-28

SMILES | GI50 (HT-29) | GI50 (MDA-MB-231) | GI50 (M14) | GI50 (ACHN) | GI50 (A498) | GI50 (SF-268) | GI50 (TK-10) | GI50 (K562) | GI50 (RXF 393) | GI50 (NCI-H23) | GI50 (786-0) | GI50 (UACC-62) | GI50 (UO-31) | GI50 (SNB-19) | GI50 (SN12C) | GI50 (MCF7) | GI50 (NCI-H522) | GI50 (T47D) | GI50 (SNB-75) | GI50 (SK-MEL-28)
O=C1CC(c2cccc(F)c2)Nc2cc3c(cc21)OCO3 (centres undefined) | 0.0237 µM (active) | 0.149 µM (active) | 0.0267 µM (active) | 0.0649 µM (active) | < 0.01 µM (active) | 0.0914 µM (active) | 1.13 µM (inactive) | < 0.01 µM (active) | 0.0247 µM (active) | 0.0335 µM (active) | 0.0468 µM (active) | 0.0543 µM (active) | 0.0422 µM (active) | 0.0365 µM (active) | 0.0509 µM (active) | 0.0472 µM (active) | 0.0208 µM (active) | > 100 µM (inactive) | – | –
Cc1cccc(/C=N/NC(=S)N2CCCC2)n1 | 0.0528 µM (active) | 0.133 µM (active) | 0.133 µM (active) | 0.202 µM (active) | 0.347 µM (active) | 0.251 µM (active) | 0.177 µM (active) | 0.2 µM (active) | – | 0.215 µM (active) | 0.199 µM (active) | 0.296 µM (active) | 0.297 µM (active) | 2.82 µM (inactive) | 0.247 µM (active) | 2.91 µM (inactive) | 0.0458 µM (active) | < 0.0306 µM (active) | 2.95 µM (inactive) | 1.02 µM (active)
CCn1c(=O)c2c3ccc(OC(C)=O)cc3[nH]c2c2ccc(OC(C)=O)cc21 | 43.3 µM (inactive) | 33.1 µM (inactive) | 45.3 µM (inactive) | 31.9 µM (inactive) | – | 35.8 µM (inactive) | 51.5 µM (inactive) | 24 µM (inactive) | 34.2 µM (inactive) | 40.3 µM (inactive) | 58.1 µM (inactive) | 24.1 µM (inactive) | 44.1 µM (inactive) | 50.5 µM (inactive) | 32.7 µM (inactive) | 23.1 µM (inactive) | 37.2 µM (inactive) | 18.5 µM (inactive) | 10.1 µM (inactive) | 49.2 µM (inactive)
NC1CCCCC1NCCNC1CCCCC1N (centres undefined) | 17.7 µM (inactive) | > 100 µM (inactive) | > 100 µM (inactive) | > 100 µM (inactive) | > 100 µM (inactive) | > 100 µM (inactive) | > 100 µM (inactive) | 49.2 µM (inactive) | > 100 µM (inactive) | 29.9 µM (inactive) | > 100 µM (inactive) | > 100 µM (inactive) | > 100 µM (inactive) | > 100 µM (inactive) | > 100 µM (inactive) | 45.9 µM (inactive) | > 100 µM (inactive) | > 100 µM (inactive) | – | > 100 µM (inactive)
OCC1OC(O[C@H]2CN3[C@H](O)[C@@H](O)[C@H](O)[C@H]3C2O)C(O)C(O)C1O (some centres undefined) | > 100 µM (inactive) | > 100 µM (inactive) | > 100 µM (inactive) | > 100 µM (inactive) | > 100 µM (inactive) | > 100 µM (inactive) | > 100 µM (inactive) | > 100 µM (inactive) | > 100 µM (inactive) | > 100 µM (inactive) | > 100 µM (inactive) | > 100 µM (inactive) | > 100 µM (inactive) | > 100 µM (inactive) | > 100 µM (inactive) | > 100 µM (inactive) | > 100 µM (inactive) | > 100 µM (inactive) | – | > 100 µM (inactive)
COc1ccc(N2C(=O)C3c4[nH]c5ccc(F)cc5c4C4CCC(c5ccccc5)CC4C3C2=O)cc1 (centres undefined) | 16 µM (inactive) | 15.3 µM (inactive) | 12.9 µM (inactive) | 20.3 µM (inactive) | 15.7 µM (inactive) | 5.81 µM (inactive) | 21.9 µM (inactive) | 3.44 µM (inactive) | – | 18.8 µM (inactive) | 3.56 µM (inactive) | 11.9 µM (inactive) | 21.4 µM (inactive) | 11.1 µM (inactive) | 26.2 µM (inactive) | 18.7 µM (inactive) | 13 µM (inactive) | 39.3 µM (inactive) | 12.5 µM (inactive) | 13.5 µM (inactive)
COc1ccc2[nH]c3c(c2c1)CCc1c(OC)cccc1-3 | > 100 µM (inactive) | > 100 µM (inactive) | > 100 µM (inactive) | > 100 µM (inactive) | > 100 µM (inactive) | > 100 µM (inactive) | > 100 µM (inactive) | 53.6 µM (inactive) | – | > 100 µM (inactive) | > 100 µM (inactive) | > 100 µM (inactive) | > 100 µM (inactive) | > 100 µM (inactive) | > 100 µM (inactive) | > 100 µM (inactive) | 87.1 µM (inactive) | 14.5 µM (inactive) | 70 µM (inactive) | > 100 µM (inactive)
COC(=O)/C=C/c1ccc2c(c1)[C@H](C(=O)OC)[C@@H](c1ccc(O)cc1)O2 | 27.9 µM (inactive) | 14.8 µM (inactive) | 10.5 µM (inactive) | 42.6 µM (inactive) | 86.9 µM (inactive) | 30.3 µM (inactive) | 41.4 µM (inactive) | 4.06 µM (inactive) | – | 46.8 µM (inactive) | 30 µM (inactive) | 20 µM (inactive) | 28.5 µM (inactive) | 21.9 µM (inactive) | 43.5 µM (inactive) | 9.02 µM (inactive) | 21.4 µM (inactive) | 28.1 µM (inactive) | – | 23.1 µM (inactive)
CCCN1C(=O)/C(=C\c2ccc(OC)c(OC)c2)S/C1=N\c1ccccc1 | > 100 µM (inactive) | > 100 µM (inactive) | > 100 µM (inactive) | > 100 µM (inactive) | 38.3 µM (inactive) | 38.6 µM (inactive) | 31.1 µM (inactive) | > 100 µM (inactive) | – | > 100 µM (inactive) | 17.5 µM (inactive) | > 100 µM (inactive) | > 100 µM (inactive) | 27.5 µM (inactive) | > 100 µM (inactive) | > 100 µM (inactive) | > 100 µM (inactive) | > 100 µM (inactive) | – | > 100 µM (inactive)
COc1cc([C@H]2c3cc(O)c(OC)cc3C[C@]3(O)[C@@H]2CO[C@@H]3O)ccc1O | > 100 µM (inactive) | > 100 µM (inactive) | > 100 µM (inactive) | > 100 µM (inactive) | > 100 µM (inactive) | > 100 µM (inactive) | > 100 µM (inactive) | > 100 µM (inactive) | – | > 100 µM (inactive) | > 100 µM (inactive) | > 100 µM (inactive) | > 100 µM (inactive) | > 100 µM (inactive) | > 100 µM (inactive) | > 100 µM (inactive) | > 100 µM (inactive) | > 100 µM (inactive) | > 100 µM (inactive) | > 100 µM (inactive)
CC1CN=C(N(C(=O)Nc2ccc(Cl)cc2)c2cccc(Cl)c2)S1 (centres undefined) | 23 µM (inactive) | 39.3 µM (inactive) | 7.24 µM (inactive) | 10.8 µM (inactive) | 16.9 µM (inactive) | 54.2 µM (inactive) | 15 µM (inactive) | 7.06 µM (inactive) | – | 35.1 µM (inactive) | 23.9 µM (inactive) | – | 37.4 µM (inactive) | > 100 µM (inactive) | 15.7 µM (inactive) | 34.7 µM (inactive) | – | 13 µM (inactive) | 65 µM (inactive) | 28.6 µM (inactive)
CC1=NN(c2cccc(Cl)c2)C2(C1=Cc1ccc(N(C)C)cc1)C(Cl)C(=O)N2c1nc2ccccc2s1 (centres undefined) | 25.5 µM (inactive) | 46.8 µM (inactive) | 18.7 µM (inactive) | 53.2 µM (inactive) | 36.3 µM (inactive) | 20.3 µM (inactive) | 76.4 µM (inactive) | 56.9 µM (inactive) | 20.3 µM (inactive) | 45.5 µM (inactive) | 43.1 µM (inactive) | – | > 100 µM (inactive) | – | – | 70.5 µM (inactive) | 19.1 µM (inactive) | 50.8 µM (inactive) | – | > 100 µM (inactive)
COc1cc2c(cc1OC)C1=Cc3ccc(OC)c(OC)c3C(C#N)N1CC2 (centres undefined) | 33.7 µM (inactive) | 28.8 µM (inactive) | 50.2 µM (inactive) | > 100 µM (inactive) | > 100 µM (inactive) | 29.7 µM (inactive) | > 100 µM (inactive) | – | – | 29.8 µM (inactive) | 78.5 µM (inactive) | 17.1 µM (inactive) | > 100 µM (inactive) | 41.3 µM (inactive) | 35.2 µM (inactive) | 29.7 µM (inactive) | 30 µM (inactive) | 9.2 µM (inactive) | 5.22 µM (inactive) | 32.4 µM (inactive)
COc1cc2c(cc1C[C@H]1[C@@H]3C[C@H]4c5c(c6ccccc6n5C)C[C@@H]([C@@H]3CO[C@]1(C)OC(C)=O)N4C)c1c(n2C)C2C[C@H]3C(C(C)=O)=COC[C@H]3[C@H](C1)N2C | 1.53 µM (inactive) | 4.55 µM (inactive) | 3.11 µM (inactive) | 3.87 µM (inactive) | 12.3 µM (inactive) | 2.69 µM (inactive) | 3.62 µM (inactive) | 6.03 µM (inactive) | 2.58 µM (inactive) | 7.06 µM (inactive) | 2.86 µM (inactive) | 5.11 µM (inactive) | 6.27 µM (inactive) | 5.2 µM (inactive) | 6.24 µM (inactive) | 7.48 µM (inactive) | – | 2.2 µM (inactive) | – | 9.91 µM (inactive)
Oc1cc(-c2cccc(C(F)(F)F)c2)nc2cc3c(cc12)OCO3 | 13.7 µM (inactive) | 1.87 µM (inactive) | 1.76 µM (inactive) | 25.7 µM (inactive) | 8.87 µM (inactive) | – | > 50 µM (inactive) | 0.26 µM (active) | – | 1.77 µM (inactive) | 2.05 µM (inactive) | 1.51 µM (inactive) | 8.89 µM (inactive) | 2.77 µM (inactive) | 8.75 µM (inactive) | 2.23 µM (inactive) | 0.536 µM (active) | > 50 µM (inactive) | 1.06 µM (active) | 2.87 µM (inactive)
